Measurements: ChEMBL document CHEMBL1128966, “Benzylphosphonic acid inhibitors of human prostatic acid phosphatase” (Bioorg Med Chem Lett, 1996)

The compounds below were run against T1, Prostatic acid phosphatase (Homo sapiens, UniProt P15309) (assay: Inhibition of human prostatic acid phosphatase was determined as inhibition of the hydrolysis of tyrosine phosphate).
T1 sequence (P15309 whole entry): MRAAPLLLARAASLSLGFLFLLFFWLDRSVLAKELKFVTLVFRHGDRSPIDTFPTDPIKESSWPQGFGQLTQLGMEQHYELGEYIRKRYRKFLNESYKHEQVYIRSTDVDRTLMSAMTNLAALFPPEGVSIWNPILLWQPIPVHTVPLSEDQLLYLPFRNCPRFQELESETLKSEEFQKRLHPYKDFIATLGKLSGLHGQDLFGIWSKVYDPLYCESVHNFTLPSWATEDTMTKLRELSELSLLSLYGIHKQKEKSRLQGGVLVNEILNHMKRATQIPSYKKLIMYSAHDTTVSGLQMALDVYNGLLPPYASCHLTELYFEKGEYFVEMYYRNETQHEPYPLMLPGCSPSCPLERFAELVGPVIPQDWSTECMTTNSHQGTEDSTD

SMILES | IC50 [µM]
O=P(O)(O)C(c1ccccc1)c1ccc(-c2ccccc2)cc1 (configuration not stated) | 67
O=P(O)(O)Cc1cccc(C(F)(F)F)c1 | 88
O=P(O)(O)C1c2ccccc2Sc2ccccc21 | > 100
O=P(O)(O)C1c2ccccc2-c2ccccc21 | > 500
O=P(O)(O)C(c1ccccc1)c1ccccc1 | 142
O=P(O)(O)C(CCc1ccccc1)c1ccccc1 (configuration not stated) | 14
O=P(O)(O)C1c2ccccc2Oc2ccccc21 | 22
O=P(O)(O)C1c2ccccc2CCc2ccccc21 | 94
O=P(O)(O)C(Cc1ccc(-c2ccccc2)cc1)c1ccccc1 (configuration not stated) | 16
O=P(O)(O)C(c1ccc(-c2ccccc2)cc1)c1ccc(-c2ccccc2)cc1 | 70
O=P(O)(O)C1c2ccccc2C=Cc2ccccc21 | > 100
O=P(O)(O)Cc1ccccc1 [BENZYLPHOSPHONIC ACID] | > 500
